The target in experiment [1] is T1, S. agalactiae NDH-2 (Streptococcus agalactiae, UniProt Q8E3H1). The experiment is described as follows: Inhibition of isolated NDH-2 NADH:quinone oxidoreductase activity (FDA-approved drug library screen and IC50). To be noted: for inhibition at 25 µM: read-out: inhibition of enzymatic activity.
For another experiment, the system named is S. agalactiae cells. Briefly: Inhibition of cell growth overnight under respiration permissive conditions (GI50). The format is cell-based, Streptococcus agalactiae. The settings on record: for effect on cell growth: whole cells growing under respiration permissive conditions; for GI50: Streptococcus agalactiae, overnight growth, respiration permissive conditions, read-out: GI50 (concentration that causes 50% inhibition of cell growth).

In another experiment the test system is S. aureus NdhC. More on the design: method as in PMID 24709059. The settings on record: cited from earlier work.
Another experiment concerns Streptococcus mutans. More on the design: method as in PMID 28087617. To be noted: cited from earlier work.
In a further experiment the test system is Porphyromonas gingivalis. On the set-up: method as in PMID 28087617. To be noted: cited from earlier work.
For another experiment, the system named is M. tuberculosis. More on the design: method as in PMID 23439641. The settings on record: cited from earlier work.
Experiment [2] deals with S. agalactiae Δnox2 strain. Briefly: Overnight growth and oxygen consumption of the Δnox2 strain with zafirlukast.
Another experiment deals with S. agalactiae WT cells. To be noted: Streptococcus agalactiae, read-out: inhibition of respiration (oxygen consumption).
The target of experiment [3] is T1, S. agalactiae NDH-2. Briefly: NDH-2 enzyme activity and kinetic parameters with NADH and soluble quinone analogues. The format is biochemical. On the procedure:
The rate of NADH oxidation was determined using a UV-Vis spectrophotometer (Agilent Technologies model 8453) by monitoring absorbance at 340 nm (NADH oxidation) upon addition of 100 µM NADH in the presence of 2 nM enzyme and a 100 µM concentration of a quinone soluble analogue. Assays were performed at 37°C in buffer B (50 mM sodium phosphate buffer [pH 7], 150 mM NaCl) plus 125 µg ml^−1 of soy asolectin (Sigma) and 20 µM FAD. For determination of kinetic constants, 2 to 200 µM NADH and 2 to 200 µM of DMN were added to the reaction mixture containing 2 nM enzyme. Enzyme rates are expressed as a turnover number (kcat) based on moles of NADH oxidized per second per mole of enzyme.

T1 sequence (Q8E3H1 2-402 limits assumed): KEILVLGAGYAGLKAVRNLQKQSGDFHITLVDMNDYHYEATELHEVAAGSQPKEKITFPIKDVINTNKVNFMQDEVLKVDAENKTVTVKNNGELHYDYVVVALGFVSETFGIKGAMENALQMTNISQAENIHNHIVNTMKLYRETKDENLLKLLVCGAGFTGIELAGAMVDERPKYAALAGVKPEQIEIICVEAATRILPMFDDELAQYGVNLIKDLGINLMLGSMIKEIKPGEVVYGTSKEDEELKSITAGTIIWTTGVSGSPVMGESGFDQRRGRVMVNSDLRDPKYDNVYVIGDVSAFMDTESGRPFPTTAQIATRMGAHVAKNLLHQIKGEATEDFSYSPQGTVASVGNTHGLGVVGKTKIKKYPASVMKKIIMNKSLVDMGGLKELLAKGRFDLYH

Turning to `Oc1c(Cl)cc(Cl)c(Cl)c1Cc1c(O)c(Cl)cc(Cl)c1Cl` [hexachlorophene], the “inhibition of enzymatic activity” value on S. agalactiae NDH-2 [1] (25 µM each compound, pure enzyme, NADH and menadione) is given as “at least 80%”.
Consider `CCOc1nc2cccc(C(=O)O)c2n1Cc1ccc(-c2ccccc2-c2nnn[nH]2)cc1` [candesartan], for which the inhibition at 25 µM at S. agalactiae NDH-2 [1] was at least 80%. Further, in the experiment on S. agalactiae cells, the “effect on cell growth” value is listed as “no effect on cell growth”.
With `O=c1c(O[C@@H]2O[C@H](CO)[C@@H](O)[C@H](O)[C@H]2O)c(-c2ccc(O)c(O)c2)oc2cc(O)cc(O)c12` [isoquercetin], the inhibition at 25 µM at S. agalactiae NDH-2 [1] was at least 80%. Further, the “effect on cell growth” value in the experiment with S. agalactiae cells is on record as “no effect on cell growth”.
As to `CN1CCN(CCCN2c3ccccc3Sc3ccc(C(F)(F)F)cc32)CC1` [trifluoperazine], the “inhibition of S. agalactiae NDH-2” value at S. agalactiae NDH-2 [1] is “not inhibited”. Also, the “inhibitory effect on S. aureus NdhC” value with S. aureus NdhC is reported as “strong inhibitory effect”.
For the compound `Cc1cc(C(C#N)c2ccc(Cl)cc2)c(Cl)cc1NC(=O)c1cc(I)cc(I)c1O` (stereo not shown) [Closantel], at S. agalactiae NDH-2 [1], the IC50 came out at 5.34 ± 0.65 µM and the inhibition at 25 µM was at least 80%. The GI50 in the experiment with S. agalactiae cells was 0.25 ± 0.04 µM.
For `COc1cc(C(=O)NS(=O)(=O)c2ccccc2C)ccc1Cc1cn(C)c2ccc(NC(=O)OC3CCCC3)cc12` [Zafirlukast], the “activity against Streptococcus mutans” value in the experiment with Streptococcus mutans was “antibacterial and antibiofilm activity”. Also, on S. agalactiae NDH-2 [1], the midpoint of inhibition, the IC50, lay at 0.83 ± 0.07 µM and the inhibition at 25 µM was at least 80%. For the same compound, the “activity against Porphyromonas gingivalis” value in the experiment with Porphyromonas gingivalis was “antibacterial and antibiofilm activity”. The “activity against M. tuberculosis” value with M. tuberculosis is reported as “bactericidal activity”. In [2] (Δnox2 strain grown overnight with 7.5 µM zafirlukast (~GI50)), the “growth under respiration permissive compared to nonpermissive conditions” value is “does not exhibit enhanced growth”. In addition, the “oxygen utilization compared to cells grown in the absence of zafirlukast” value in experiment [2] (Δnox2 strain grown overnight with 7.5 µM zafirlukast, respiration permissive) is reported as “substantially lower”. Further, the inhibition at 7.5 µM with S. agalactiae WT cells stood at 90%. For the same compound, the GI50 in the experiment on S. agalactiae cells came to 6.07 ± 0.1 µM.
As for `CC[C@H](C)C[C@H](C)CCCCCCCCC(=O)N[C@H]1C[C@@H](O)[C@@H](NCCN)NC(=O)[C@@H]2[C@@H](O)CCN2C(=O)[C@H]([C@H](O)CCN)NC(=O)[C@H]([C@H](O)[C@@H](O)c2ccc(O)cc2)NC(=O)[C@@H]2C[C@@H](O)CN2C(=O)[C@H]([C@@H](C)O)NC1=O` [Caspofungin], at S. agalactiae NDH-2 [1], the IC50 amounted to 15.2 ± 2.33 µM and the inhibition at 25 µM was at least 80%. Also, the GI50 with S. agalactiae cells came to 41 ± 2.62 µM.
In the case of `CCCCOc1ccc(OCCCN2CCOCC2)cc1` [pramoxine], the inhibition at 25 µM on S. agalactiae NDH-2 [1] is at least 80%. The “effect on cell growth” value in the experiment with S. agalactiae cells is “no effect on cell growth”.
In the case of `CSc1ccc2c(c1)N(CCC1CCCCN1C)c1ccccc1S2` (stereo not shown) [thioridazine], in the experiment on S. aureus NdhC, the “inhibitory effect on S. aureus NdhC” value was “strong inhibitory effect”.
For the compound `COC1=C(OC)C(=O)C(CC=C(C)C)=C(C)C1=O` [Q1, ubiquinone-1], the “enzyme activity corresponding to 100% (NADH oxidation)” value at S. agalactiae NDH-2 [3] (100 µM quinone analogue, 100 µM NADH, Fig. 2C) was 4,190 NADH s^−1.
In the case of `CC1=C(C)C(=O)c2ccccc2C1=O` [DMN, 2,3-dimethyl-1,4-naphthoquinone], the turnover number result at S. agalactiae NDH-2 [3] (with DMN as electron acceptor) was “about 800 NADH/s^−1”.
As for `NC(=O)C1=CN([C@@H]2O[C@H](COP(=O)(O)OP(=O)(O)OC[C@H]3O[C@@H](n4cnc5c(N)ncnc54)[C@H](O)[C@@H]3O)[C@@H](O)[C@H]2O)C=CC1` [NADH], the Km on S. agalactiae NDH-2 [3] (2 nM enzyme, 2 to 200 µM NADH and DMN, 37°C, pH 7, read-out: Km for the enzyme's substrates) turned out to be 11 µM.
As to `CCCCC(CC)CNC(=N)NC(=N)NCCCCCCNC(=N)NC(=N)NCC(CC)CCCC` (stereo not shown) [Alexidine], on S. agalactiae NDH-2 [1], half-maximal inhibition (IC50) required 16.8 ± 1.26 µM and the inhibition at 25 µM was at least 80%. In addition, the GI50 in the experiment with S. agalactiae cells came out at 2.7 ± 0.51 µM.
Consider `CSc1nc2cc(Cl)c(Oc3cccc(Cl)c3Cl)cc2[nH]1` [Triclabendazole], for which, at S. agalactiae NDH-2 [1], 0.14 ± 0.02 µM corresponded to half-maximal inhibition (IC50) and the inhibition at 25 µM was at least 80%. Moreover, the GI50 in the experiment on S. agalactiae cells came out at 15.3 ± 1.92 µM.

One may read the IC50 as the point on the concentration scale where inhibition reaches its midpoint. Higher therefore signals lower potency. As usually defined, the Km is the concentration of substrate that gives half-maximal velocity.

The record behind these values is paper PMC6030563, “Type 2 NADH Dehydrogenase Is the Only Point of Entry for Electrons into the Streptococcus agalactiae Respiratory Chain and Is a Potential Drug Target” (mBio, 2018).
